The source of these data is ChEMBL document CHEMBL1201862, “PubChem BioAssay data set” (2004).

Among the test systems are SNB-75; MDA-MB-231; NCI-H226; SK-OV-3; T47D; MOLT-4; OVCAR-8; SW-620; HCT-116; OVCAR-4; SK-MEL-28; EKVX; Malme-3M; UACC-62; SF-295; SF-268; DU-145; NCI/ADR-RES; HT-29; BT-549.
Holding throughout (assay): NCI-60 cell line screen, 48 h

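Cells were grown in 96-well plates and exposed to each compound for 48 hours at five concentrations; endpoints were interpolated linearly between bracketing concentrations, or set to the highest concentration if not reached. Here, GI50 denotes the concentration required for 50% inhibition of growth.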 Active and inactive are the calls of the source. Cut-off read from the data, not from the text of the source: active = GI50 up to about 1.1 µM and inactive = higher.

Regarding `S=C(NCCc1ccccn1)N/N=C/c1ccccn1`, the GI50 in the test with SNB-75 was 9.35 µM (inactive); with MDA-MB-231 it was < 0.01 µM (active); in the test with NCI-H226, 0.0598 µM (active); in the test on SK-OV-3, 1.12 µM (active); in the test on T47D it was < 0.01 µM (active); in the test on MOLT-4, < 0.0108 µM (active). Besides, the GI50 is 0.0489 µM (active) in the test with OVCAR-8; < 0.01 µM (active) with SW-620; < 0.01 µM (active) with HCT-116; 0.519 µM (active) in the test on OVCAR-4; 1.87 µM (inactive) in the test on SK-MEL-28; 0.0243 µM (active) with EKVX. Also, the GI50 in the test on Malme-3M was 2.62 µM (inactive); in the test with UACC-62, 0.0841 µM (active); in the test on SF-295 it was 0.964 µM (active); with SF-268 it was 0.301 µM (active); with DU-145 it was 1.48 µM (inactive); in the test with NCI/ADR-RES, 0.0147 µM (active).

Regarding `CCNc1cc2c3c(c1)CCN3CCC2`, the GI50 was > 10 µM (inactive) in the test with SNB-75; > 10 µM (inactive) with MDA-MB-231; > 10 µM (inactive) in the test on NCI-H226; > 10 µM (inactive) in the test with SK-OV-3; 4.71 µM (inactive) with T47D; > 10 µM (inactive) in the test with MOLT-4. Besides, the GI50 with OVCAR-8 was 8.59 µM (inactive); in the test on SW-620, 6.3 µM (inactive); in the test on HCT-116 it was > 10 µM (inactive); with OVCAR-4, > 10 µM (inactive); in the test on SK-MEL-28, > 10 µM (inactive); with EKVX, 5.86 µM (inactive). For the same compound, the GI50 in the test with Malme-3M, with UACC-62, with SF-295, in the test with SF-268, in the test with DU-145 and in the test with NCI/ADR-RES was > 10 µM (inactive) each time. Moreover, the GI50 in the test with HT-29 is > 10 µM (inactive).

On to `CCCCCCCCCCCCCCCCNC(=O)/C(O)=C/C(=O)c1ccc(C)cc1`, for which the GI50 with SNB-75, with MDA-MB-231, in the test with NCI-H226, in the test with SK-OV-3, in the test with T47D and with MOLT-4 was > 10 µM (inactive) throughout. Also, the GI50 with OVCAR-8, with SW-620, in the test with OVCAR-4, in the test with SK-MEL-28, with EKVX and in the test with Malme-3M was > 10 µM (inactive) throughout. The GI50 with SF-295, in the test on SF-268, in the test on DU-145, with NCI/ADR-RES and in the test with HT-29 was > 10 µM (inactive) in each case.

In the case of `C=C(CN(CC)CC)C1(c2ccccc2)CC2(CCCC2)C(=O)O1` (configuration not stated), the GI50 in the test on SNB-75 is 33 µM (inactive); in the test with MDA-MB-231 it was > 100 µM (inactive); with NCI-H226, 48 µM (inactive); in the test on SK-OV-3, > 100 µM (inactive); in the test on T47D, > 100 µM (inactive); in the test with MOLT-4, 53.1 µM (inactive). Besides, the GI50 is > 100 µM (inactive) in the test with OVCAR-8; > 100 µM (inactive) with SW-620; 38.3 µM (inactive) in the test on HCT-116; > 100 µM (inactive) with OVCAR-4; > 100 µM (inactive) in the test with SK-MEL-28; > 100 µM (inactive) with EKVX. For the same compound, the GI50 with Malme-3M is > 100 µM (inactive); in the test with UACC-62, > 100 µM (inactive); in the test on SF-295 it was > 100 µM (inactive); in the test on SF-268, > 100 µM (inactive); with DU-145 it was > 100 µM (inactive); with NCI/ADR-RES, 11.1 µM (inactive). Further, in the test on HT-29, the GI50 is 24.2 µM (inactive).

With `CCc1cc2c(c3c1CCC3=O)CC1(Cc3ccc(C)cc3C1)C2` (configuration not stated), the GI50 was 36.6 µM (inactive) with MDA-MB-231; 13.5 µM (inactive) with NCI-H226; 71.3 µM (inactive) in the test with SK-OV-3; 14.1 µM (inactive) with T47D; 11.5 µM (inactive) with MOLT-4; > 100 µM (inactive) in the test on OVCAR-8. The GI50 with HCT-116 was 17.6 µM (inactive); with OVCAR-4, 33.2 µM (inactive); in the test with EKVX, 16.8 µM (inactive); in the test on Malme-3M it was 32.1 µM (inactive); with UACC-62, 22.2 µM (inactive); in the test on SF-295, 80.2 µM (inactive). In addition, the GI50 was > 100 µM (inactive) with NCI/ADR-RES and 18.1 µM (inactive) in the test with HT-29.

Take `OC(c1cccs1)c1cc2ccccc2s1` (configuration not stated): the GI50 with SNB-75, in the test on MDA-MB-231, in the test on NCI-H226, in the test on SK-OV-3, in the test on T47D and in the test on MOLT-4 was > 10 µM (inactive) each time. Besides, the GI50 in the test on OVCAR-8, in the test on SW-620, in the test on HCT-116, in the test with OVCAR-4, in the test on SK-MEL-28 and with EKVX was > 10 µM (inactive) in each case. For the same compound, the GI50 with UACC-62, in the test on SF-295, with SF-268, in the test on DU-145, in the test on NCI/ADR-RES and in the test on HT-29 was > 10 µM (inactive) each time.

Turning to `O=S1(=O)OCCOS(=O)(=O)C1S(=O)(=O)c1cccc2ccccc12`, the GI50 is > 100 µM (inactive) with MDA-MB-231; > 100 µM (inactive) in the test on MOLT-4; > 100 µM (inactive) in the test with OVCAR-8; 70.5 µM (inactive) in the test on SW-620; 24 µM (inactive) with HCT-116; > 100 µM (inactive) in the test with OVCAR-4. Also, the GI50 in the test on SK-MEL-28, with EKVX, in the test with Malme-3M, with SF-295, with DU-145 and in the test with NCI/ADR-RES was > 100 µM (inactive) in each case. Moreover, the GI50 in the test with HT-29 was 52.7 µM (inactive); in the test on BT-549 it was > 100 µM (inactive).

`COC(=O)/C=C(\CC(=O)OC)n1nnnc1[C@@H]1C[C@H](COC(c2ccccc2)(c2ccccc2)c2ccccc2)[C@H]2OC(C)(C)O[C@H]21`: the GI50 in the test on SNB-75 is 37.2 µM (inactive); in the test with MDA-MB-231, > 100 µM (inactive); with NCI-H226, > 100 µM (inactive); in the test with SK-OV-3, > 100 µM (inactive); in the test on T47D, 20.8 µM (inactive); in the test with MOLT-4 it was > 100 µM (inactive). Also, the GI50 is > 100 µM (inactive) in the test with OVCAR-8; > 100 µM (inactive) in the test on SW-620; 89.1 µM (inactive) in the test with HCT-116; > 100 µM (inactive) with OVCAR-4; > 100 µM (inactive) in the test with SK-MEL-28; 54.2 µM (inactive) in the test on EKVX. In addition, the GI50 with Malme-3M, in the test with SF-295, in the test with SF-268, with DU-145 and in the test with HT-29 was > 100 µM (inactive) in each case.

Regarding `CC(=O)Oc1cc(OC(C)=O)c2c(c1C)CC[C@@H]1[C@@H]2CC[C@]2(C)[C@@H](OC(C)=O)CC[C@@H]12`, the GI50 was 22.5 µM (inactive) with SNB-75; 16.1 µM (inactive) with MDA-MB-231; 17.4 µM (inactive) in the test with NCI-H226; 11.9 µM (inactive) in the test on MOLT-4; 20.2 µM (inactive) in the test on OVCAR-8; 18.9 µM (inactive) in the test with SW-620. Also, the GI50 is 15.8 µM (inactive) with HCT-116; 19 µM (inactive) in the test with SK-MEL-28; 14.8 µM (inactive) in the test with EKVX; 15.6 µM (inactive) in the test with Malme-3M; 18.7 µM (inactive) in the test on UACC-62; 23 µM (inactive) in the test on SF-295. The GI50 is 20.3 µM (inactive) in the test with SF-268; 24.1 µM (inactive) in the test on DU-145; 22.5 µM (inactive) in the test on NCI/ADR-RES; 15.8 µM (inactive) in the test on HT-29; 18.5 µM (inactive) in the test with BT-549.

Take `Cc1cc2c(cc1-c1cc3c(cc1C)C(C(C)C)=C(O)C(=O)/C3=C\Nc1ccccn1)/C(=C/Nc1ccccn1)C(=O)C(O)=C2C(C)C`: the GI50 is 63.4 µM (inactive) in the test on SNB-75; 94.6 µM (inactive) in the test on MDA-MB-231; 23 µM (inactive) in the test with NCI-H226; > 100 µM (inactive) with T47D; 25.7 µM (inactive) in the test with MOLT-4; 29 µM (inactive) with OVCAR-8. The GI50 with SW-620 is 48 µM (inactive); with HCT-116, 64.7 µM (inactive); in the test with OVCAR-4, 34.9 µM (inactive); in the test on SK-MEL-28 it was 58.2 µM (inactive); with EKVX, 37.8 µM (inactive); with Malme-3M, 21.6 µM (inactive). In addition, the GI50 in the test on UACC-62 is 65 µM (inactive); in the test with SF-295, 49.9 µM (inactive); with SF-268, 30.3 µM (inactive); with DU-145, > 100 µM (inactive); in the test with NCI/ADR-RES, 27.9 µM (inactive).

With `CSC1=N/C(=C\c2ccc(Cl)cc2)C(=O)N1CN1CCCCC1`, the GI50 with SNB-75 was 46.2 µM (inactive); with MDA-MB-231, 42.1 µM (inactive); in the test on NCI-H226 it was > 100 µM (inactive); in the test on SK-OV-3, 35.1 µM (inactive); in the test on MOLT-4, 62.7 µM (inactive); with OVCAR-8, 37.1 µM (inactive). In addition, the GI50 in the test on SW-620 was 34.9 µM (inactive); with HCT-116 it was 37.7 µM (inactive); with SK-MEL-28, > 100 µM (inactive); with EKVX it was 16.6 µM (inactive); in the test on Malme-3M, 25.5 µM (inactive); in the test on UACC-62, 65.8 µM (inactive). For the same compound, the GI50 with SF-295 is 35.5 µM (inactive); with SF-268, 27.4 µM (inactive); in the test on DU-145 it was 89.3 µM (inactive); with NCI/ADR-RES it was 54.3 µM (inactive); with HT-29, 35.6 µM (inactive).

Regarding `O=C1c2ccccc2-c2ccccc2C(=O)C1(Br)Br`, the GI50 with SNB-75 is 12.9 µM (inactive); in the test on NCI-H226, 17.7 µM (inactive); in the test with SK-OV-3 it was 19.5 µM (inactive); in the test on MOLT-4 it was 2.67 µM (inactive); in the test with OVCAR-8, 11 µM (inactive); with SW-620, 3.8 µM (inactive). The GI50 in the test with HCT-116 was 7.73 µM (inactive); in the test on OVCAR-4, 13.7 µM (inactive); with SK-MEL-28, 7.28 µM (inactive); with EKVX it was 14.6 µM (inactive); with Malme-3M it was 3.93 µM (inactive); in the test on UACC-62 it was 7.36 µM (inactive). Further, the GI50 with SF-295 was 16.1 µM (inactive); with SF-268, 14.2 µM (inactive); in the test with HT-29 it was 15.4 µM (inactive).
